Reference: patent US20090130171A1, “High concentration gentian violet containing medical devices and methods of making same” (priority 2007, published 2009)

Experiments:
[1] = format: physicochemical; conditions: 0.5 %
Method: Compounding Conditions for stable gentian violet:
Barrel Temperatures: • Zone 1-5=170° C. • Zone 6=175° C.,
Compounding Temperature for degraded gentian violet:
Compounding was performed with Sigma Aldrich ACS grade gentian violet, lot 016K3691. HPLC analysis was performed by cutting and measuring 1 cm segments of each formulation (n=3) using the method described in Examples I and II.
The chromatograms in FIGS. 5-10 show the stable gentian violet followed by the degraded gentian violet, at 588 nm, 253 nm, and 280 nm. The degradation peaks from the 217° C. sample are evident as the new peaks at 253 and 280 nm wavelengths. The chromatogram of the low processing temperature was identical to that of the Gentian Violet raw material.

[2] = Decolorization of GV: photo-oxidation with H2O2 under UV light (Protocol 1); format: physicochemical; conditions: 0.1% GV in 3% H2O2 and agar stain
Method: (§1) Protocol 1. Photo-oxidation of GV with H2O2 • 1.1. 0.15 g GV (0.1% w/v) was dissolved in 150 ml 3% H2O2. The solution was exposed to UV light (Bio-lab hood) for 2 hours. 5 ml of solution was extracted out, in increments of 5 mins. • 1.2. 10 μl of 0.1% GV in DI water was spiked onto a plated agar plate. After staining of the agar plate (evaporation of most of the water from the spiked drop), H2O2 was pipetted onto the stain in increments of 50 μl every 5 mins for 2 hours, under the UV light. Protocol 2. Oxidation of GV by activation of H2O2 with Ag • 2.1. 10.6 mg of nano-particle Silver was mixed into 40 ml 3% H2O2 with constant stirring. 0.1% GV in water was added at various increments (10 μl-1 ml) until purple color persisted. Molar concentration ratios (GV:Ag) were calculated to determine the molar ratio where GV is no longer oxidized. • 2.2 10 μl of 0.1% GV in DI water was spiked onto a plated agar plate. After staining of the agar plate (evaporation of most of the water from the spiked drop), 0.009 g of Ag was applied to the surface of the stain and 100 μl of H2O2 was pipette onto the Ag. Protocol 3. Oxidation of GV by activation of H2O2 with Vitamin C 1% Vitamin C (w/v) was dissolved in 100 ml 3% H2O2. 7 g of TRIS buffer was also dissolved in the H2O2. 0.1% GV in water was added at increments of 10 μl until the purple color persisted.

[3] = Decolorization of GV: activation of H2O2 with nano-particle silver (Protocol 2); format: physicochemical
Method: as §1

[4] = Decolorization of GV: activation of H2O2 with Vitamin C (Protocol 3); format: physicochemical; conditions: 1% Vitamin C in 3% H2O2, TRIS, pH 6-7, first 10 μl of 0.1% GV
Method: as §1

processing temperature at which extruded gentian violet degrades [1]: 217 °C
color change of GV [2]: No color change
color change of GV solution ([3]; 0.1% GV pipetted into Ag + 3% H2O2 solution): fade to a faint yellow color
color of solution after GV addition [4]: remained purple
Structure (SMILES): CN(C)c1ccc(C(=C2C=CC(=[N+](C)C)C=C2)c2ccc(N(C)C)cc2)cc1 [gentian violet]
color change of GV stain on agar ([3]; 10 μl 0.1% GV stain, Ag + 100 μl H2O2): turn to a faint yellow color after 10 mins
